From ChEMBL document CHEMBL4834480, “Discovery of 3,5-Dimethyl-4-Sulfonyl-1H-Pyrrole-Based Myeloid Cell Leukemia 1 Inhibitors with High Affinity, Selectivity, and Oral Bioavailability” (J Med Chem, 2021)
≈ marks a conversion by molar mass, not a printed value. Calls of active or inactive are those of the source. No cut-off for these calls is given here.

What was measured:
[1] = Cmax in Sprague-Dawley rat at 10 mg/kg, po measured up to 24 hrs by LC-MS/MS analysis; format: ADME, organism-based; set-up: route oral, dose 10 mg/kg, time <=24; details: in vivo
CYP1A2 = biological target: T1, CYP1A2 (Homo sapiens, UniProt P05177); assay: Inhibition of CYP1A2 (unknown origin) at 10 uM preincubated for 5 min followed by NADPH addition and measured after 20 mins by LC-MS/MS analysis relative to control; format: ADME; details: time 25 min
T1 sequence (P05177 whole entry): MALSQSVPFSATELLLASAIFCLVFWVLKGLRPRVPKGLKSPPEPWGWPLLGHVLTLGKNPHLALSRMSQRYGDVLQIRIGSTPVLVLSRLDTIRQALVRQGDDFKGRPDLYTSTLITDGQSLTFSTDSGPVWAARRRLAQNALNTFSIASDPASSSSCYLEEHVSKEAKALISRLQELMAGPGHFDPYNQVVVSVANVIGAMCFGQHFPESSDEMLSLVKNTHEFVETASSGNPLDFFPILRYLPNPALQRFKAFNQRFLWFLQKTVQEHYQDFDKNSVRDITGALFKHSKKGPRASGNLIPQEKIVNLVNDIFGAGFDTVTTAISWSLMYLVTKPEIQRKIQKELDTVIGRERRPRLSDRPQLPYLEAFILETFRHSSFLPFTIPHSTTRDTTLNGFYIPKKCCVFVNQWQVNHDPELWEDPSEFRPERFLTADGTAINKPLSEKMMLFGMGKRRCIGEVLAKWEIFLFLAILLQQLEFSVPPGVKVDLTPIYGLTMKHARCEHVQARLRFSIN

Bcl-2-like protein 1 = Bcl-2-like protein 1 (Homo sapiens, UniProt Q07817); assay: Binding affinity to human partial length BCL-XL (M1 to R209 residues) expressed in bacterial expression system by BCL2SCAN assay
[2] = AUCt in Sprague-Dawley rat at 10 mg/kg, po measured up to 24 hrs by LC-MS/MS analysis; format: ADME, organism-based; set-up: route oral, dose 10 mg/kg, time <=24; details: in vivo
[3] = biological target: T2, Induced myeloid leukemia cell differentiation protein Mcl-1 (Homo sapiens, UniProt Q07820); assay: Displacement of BAK from MCL1 in human NCI-H929 cells after 4 hrs by co-immunoprecipitation assay; format: cell-based; details: dose 0.1-0.5 µM
Homo sapiens = species: Homo sapiens; assay: Selectivity ratio of Kd for human partial length BCL2 (M1 to D211 residues) expressed in bacterial expression system to Kd for human partial length MCL1 ([…] to R329 residues) expressed in bacterial expression system
NCI-H929 [4] = assay: Induction of apoptosis in human NCI-H929 cells assessed as activation of caspase 7 after 4 hrs by luminescence based microplate reader assay; format: functional, cell-based; details: dose microM <=5, time 4.0 hrs
[5] = biological target: Apoptosis regulator Bcl-2 (Homo sapiens, UniProt P10415); assay: Inhibition of FITC-labeled Bak BH3 peptide binding to GST-tagged BCL2 (1 to 205 residues) (unknown origin) expressed in Escherichia coli BL21 (DE3) at 10 uM incubated for 30 mins fluorescence polarization-based competitive binding assay relative to control
CYP3A4 = CYP3A4 (Homo sapiens, UniProt P08684); assay: Inhibition of CYP3A4 (unknown origin) at 10 uM preincubated for 5 min followed by NADPH addition and measured after 20 mins by LC-MS/MS analysis relative to control; format: ADME; details: time 25 min
MV4-11 [6] = assay: Induction of apoptosis in human MV4-11 cells xenografted in BALB/c nude mouse assessed as induction of PARP cleavage at 20 mg/kg, ip administered every two days for 14 days by Western blot analysis; format: functional, organism-based; details: time 14.0 day
[7] = Apparent volume of distribution in Sprague-Dawley rat at 10 mg/kg, po measured up to 24 hrs by LC-MS/MS analysis; format: ADME, organism-based; details: in vivo
NCI-H929 [8] = assay: Antiproliferative activity against human NCI-H929 cells assessed as decrease in cell viability measured after 72 hrs by MTT assay; format: functional, cell-based; details: NCI-H929, 72 h
[9] = Stability in rat liver microsomes assessed as parent compound remaining preincubated for 5 mins followed by NADPH addition and measured after 30 mins by LC-MS/MS analysis; format: ADME, Microsome; details: time 35 min, read-out: Stabilty
P-gp = P-gp (Homo sapiens, UniProt P08183); assay: Substrate activity at P-gp in human Caco-2 cells assessed as efflux ratio of permeability by LC-MS/MS analysis; format: ADME, cell-based
[10] = Clearance in Sprague-Dawley rat at 10 mg/kg, po measured up to 24 hrs by LC-MS/MS analysis; format: ADME, organism-based; details: in vivo
[11] = Toxicity in BALB/c nude mouse xenografted with human MV4-11 cells assessed as effect on body weight at 60 mg/kg, po administered every two days for 14 days; format: organism-based; details: in vivo, 336 h, time 14 day
CYP2D6 = CYP2D6 (Homo sapiens, UniProt P10635); assay: Inhibition of CYP2D6 (unknown origin) at 10 uM preincubated for 5 min followed by NADPH addition and measured after 20 mins by LC-MS/MS analysis relative to control; format: ADME; details: time 25 min
NCI-H929 [12] = assay: Induction of apoptosis in human NCI-H929 cells assessed as upregulation of cleaved PARP measured after 48 hrs by Western blot analysis; format: functional, cell-based; details: dose microM <=5, time 48.0 hrs
K562 = assay: Induction of apoptosis in human K562 cells assessed as upregulation of cleaved PARP up to 5 uM measured after 48 hrs by Western blot analysis; format: functional, cell-based; details: dose microM <=5, time 48.0 hrs
[13] = biological target: T3, Bcl-2-related protein A1 (Homo sapiens) (UniProt Q16548); assay: Inhibition of FITC-labeled Bak BH3 peptide binding to GST-tagged BFL1 (1 to 151 residues) (unknown origin) expressed in Escherichia coli BL21 (DE3) at 10 uM incubated for 30 mins fluorescence polarization-based competitive binding assay relative to control
T3 sequence (whole entry): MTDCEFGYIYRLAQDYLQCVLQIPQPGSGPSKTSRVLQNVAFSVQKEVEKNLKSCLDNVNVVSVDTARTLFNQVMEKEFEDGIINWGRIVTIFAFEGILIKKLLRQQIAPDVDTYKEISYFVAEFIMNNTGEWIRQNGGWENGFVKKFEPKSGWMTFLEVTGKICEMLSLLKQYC

[14] = biological target: T2, Induced myeloid leukemia cell differentiation protein Mcl-1; assay: Inhibition of FITC-labeled Bak BH3 peptide binding to GST-tagged MCL1 (171 to 327 residues) (unknown origin) expressed in Escherichia coli BL21 (DE3) incubated for 30 mins fluorescence polarization-based competitive binding assay
CYP2C9 = CYP2C9 (Homo sapiens, UniProt P11712); assay: Inhibition of CYP2C9 (unknown origin) at 10 uM preincubated for 5 min followed by NADPH addition and measured after 20 mins by LC-MS/MS analysis relative to control; format: ADME; details: time 25 min
[15] = Water solubility of the compound; format: physicochemical
MV4-11 [16] = assay: Antitumor activity against human MV4-11 cells xenografted in BALB/c nude mouse assessed as induction of tumor necrosis at 20 mg/kg, ip administered every two days for 14 days by hematoxyin-eosin staining based analysis; format: functional, organism-based; details: time 14.0 day
[17] = Intrinsic clearance in rat liver microsomes; format: ADME, Microsome; details: read-out: CLH
[18] = Toxicity in BALB/c nude mouse xenografted with human MV4-11 cells assessed as effect on kidney at 60 mg/kg, po administered every two days for 14 days by hematoxyin-eosin staining based analysis; format: organism-based; details: in vivo, 336 h, time 14 day

T2 sequence (Q07820 whole entry, the tested form may be a part): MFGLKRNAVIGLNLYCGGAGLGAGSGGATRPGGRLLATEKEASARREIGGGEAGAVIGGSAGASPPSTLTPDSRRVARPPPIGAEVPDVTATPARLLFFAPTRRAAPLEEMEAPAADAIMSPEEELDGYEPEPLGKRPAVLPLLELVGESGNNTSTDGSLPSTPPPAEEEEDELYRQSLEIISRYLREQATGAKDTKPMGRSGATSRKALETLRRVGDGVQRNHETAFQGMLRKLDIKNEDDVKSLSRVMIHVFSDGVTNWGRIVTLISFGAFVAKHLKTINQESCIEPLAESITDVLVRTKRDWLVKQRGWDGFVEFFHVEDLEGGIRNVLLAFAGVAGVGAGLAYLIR
CYP2C9, sequence (P11712 whole entry): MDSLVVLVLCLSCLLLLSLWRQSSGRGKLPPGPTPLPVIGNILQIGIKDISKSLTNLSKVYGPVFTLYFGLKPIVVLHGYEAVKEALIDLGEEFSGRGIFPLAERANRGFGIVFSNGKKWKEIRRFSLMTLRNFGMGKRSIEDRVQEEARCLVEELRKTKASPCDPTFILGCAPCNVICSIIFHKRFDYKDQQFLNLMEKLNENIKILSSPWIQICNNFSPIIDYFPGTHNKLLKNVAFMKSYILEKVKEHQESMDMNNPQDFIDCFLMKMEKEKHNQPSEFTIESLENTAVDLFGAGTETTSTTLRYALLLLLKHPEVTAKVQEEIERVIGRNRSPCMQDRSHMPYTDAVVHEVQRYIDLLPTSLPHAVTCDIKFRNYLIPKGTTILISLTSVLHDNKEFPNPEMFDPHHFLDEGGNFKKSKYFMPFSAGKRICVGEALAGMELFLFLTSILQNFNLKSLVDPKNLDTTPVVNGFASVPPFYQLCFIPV
CYP2D6, sequence (P10635 whole entry): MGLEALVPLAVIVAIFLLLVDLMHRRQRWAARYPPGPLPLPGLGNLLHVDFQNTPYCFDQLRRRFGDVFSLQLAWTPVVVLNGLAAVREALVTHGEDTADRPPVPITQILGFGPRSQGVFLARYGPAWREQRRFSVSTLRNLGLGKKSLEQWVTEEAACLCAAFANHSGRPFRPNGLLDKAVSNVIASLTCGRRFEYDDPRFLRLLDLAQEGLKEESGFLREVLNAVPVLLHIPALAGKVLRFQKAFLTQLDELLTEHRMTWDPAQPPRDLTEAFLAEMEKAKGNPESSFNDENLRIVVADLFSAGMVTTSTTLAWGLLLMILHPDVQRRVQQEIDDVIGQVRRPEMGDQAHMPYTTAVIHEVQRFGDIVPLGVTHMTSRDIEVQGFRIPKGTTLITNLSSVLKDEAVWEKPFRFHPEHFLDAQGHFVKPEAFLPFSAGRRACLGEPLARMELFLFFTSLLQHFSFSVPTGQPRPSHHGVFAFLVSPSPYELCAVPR
Apoptosis regulator Bcl-2, sequence (P10415 whole entry, the tested form may be a part): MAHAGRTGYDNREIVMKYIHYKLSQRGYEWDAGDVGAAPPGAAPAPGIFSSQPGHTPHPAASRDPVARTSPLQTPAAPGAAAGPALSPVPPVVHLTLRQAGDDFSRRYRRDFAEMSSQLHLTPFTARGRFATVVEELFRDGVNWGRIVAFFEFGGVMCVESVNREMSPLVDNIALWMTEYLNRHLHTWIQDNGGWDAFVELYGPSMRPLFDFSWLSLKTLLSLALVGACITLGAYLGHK
P-gp, sequence (P08183 whole entry): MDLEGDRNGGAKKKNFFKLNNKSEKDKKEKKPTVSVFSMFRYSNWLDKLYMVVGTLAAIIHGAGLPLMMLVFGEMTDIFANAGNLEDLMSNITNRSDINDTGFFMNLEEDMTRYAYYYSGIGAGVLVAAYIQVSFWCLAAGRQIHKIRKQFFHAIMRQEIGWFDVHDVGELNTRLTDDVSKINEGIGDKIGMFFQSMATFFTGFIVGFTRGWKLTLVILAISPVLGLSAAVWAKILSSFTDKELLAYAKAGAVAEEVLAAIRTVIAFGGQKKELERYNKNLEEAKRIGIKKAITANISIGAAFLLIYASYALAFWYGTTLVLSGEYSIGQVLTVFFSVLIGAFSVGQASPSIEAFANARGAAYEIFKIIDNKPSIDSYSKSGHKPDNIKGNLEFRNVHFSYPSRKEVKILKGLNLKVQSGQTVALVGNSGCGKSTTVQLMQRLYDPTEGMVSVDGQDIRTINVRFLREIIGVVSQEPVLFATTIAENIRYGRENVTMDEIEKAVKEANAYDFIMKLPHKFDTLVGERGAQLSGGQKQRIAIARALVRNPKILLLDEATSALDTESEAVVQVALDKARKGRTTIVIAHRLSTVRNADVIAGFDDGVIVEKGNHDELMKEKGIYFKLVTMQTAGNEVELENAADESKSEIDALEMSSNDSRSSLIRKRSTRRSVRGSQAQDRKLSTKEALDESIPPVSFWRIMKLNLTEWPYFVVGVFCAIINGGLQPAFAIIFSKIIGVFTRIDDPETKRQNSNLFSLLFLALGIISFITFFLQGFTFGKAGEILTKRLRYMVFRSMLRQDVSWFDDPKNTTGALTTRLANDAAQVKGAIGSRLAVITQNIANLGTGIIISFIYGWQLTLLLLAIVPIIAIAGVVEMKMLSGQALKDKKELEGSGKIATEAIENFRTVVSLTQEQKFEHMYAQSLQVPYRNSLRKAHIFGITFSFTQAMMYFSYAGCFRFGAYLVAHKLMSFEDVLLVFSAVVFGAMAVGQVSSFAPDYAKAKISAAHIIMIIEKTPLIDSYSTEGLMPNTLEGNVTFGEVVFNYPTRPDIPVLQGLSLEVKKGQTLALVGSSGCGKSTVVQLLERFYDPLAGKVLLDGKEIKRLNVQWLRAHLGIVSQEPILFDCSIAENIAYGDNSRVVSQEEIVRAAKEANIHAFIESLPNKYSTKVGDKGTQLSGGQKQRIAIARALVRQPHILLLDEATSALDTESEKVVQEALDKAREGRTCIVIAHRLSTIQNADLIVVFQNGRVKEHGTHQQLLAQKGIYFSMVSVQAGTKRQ
Bcl-2-like protein 1, sequence (Q07817 whole entry, the tested form may be a part): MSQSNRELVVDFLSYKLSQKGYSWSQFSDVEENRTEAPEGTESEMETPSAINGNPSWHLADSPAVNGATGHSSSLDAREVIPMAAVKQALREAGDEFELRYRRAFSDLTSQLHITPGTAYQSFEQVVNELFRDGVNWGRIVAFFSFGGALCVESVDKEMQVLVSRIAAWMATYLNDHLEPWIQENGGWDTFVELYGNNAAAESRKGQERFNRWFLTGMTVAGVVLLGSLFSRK
CYP3A4, sequence (P08684 whole entry): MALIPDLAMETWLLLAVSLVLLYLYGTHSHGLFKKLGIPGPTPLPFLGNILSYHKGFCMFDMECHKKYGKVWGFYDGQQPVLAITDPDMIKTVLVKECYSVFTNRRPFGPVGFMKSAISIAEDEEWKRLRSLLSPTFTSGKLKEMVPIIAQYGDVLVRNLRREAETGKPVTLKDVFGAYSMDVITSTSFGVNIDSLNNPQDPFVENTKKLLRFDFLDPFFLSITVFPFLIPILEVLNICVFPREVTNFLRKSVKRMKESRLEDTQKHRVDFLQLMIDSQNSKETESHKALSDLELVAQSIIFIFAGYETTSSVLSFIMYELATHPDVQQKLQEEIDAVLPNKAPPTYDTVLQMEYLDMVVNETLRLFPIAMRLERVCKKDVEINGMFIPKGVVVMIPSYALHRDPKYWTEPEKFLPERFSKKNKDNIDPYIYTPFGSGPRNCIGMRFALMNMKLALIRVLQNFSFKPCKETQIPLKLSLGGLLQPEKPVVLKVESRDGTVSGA

CC(=O)c1ccc(S(=O)(=O)c2c(C)c(C(=O)O)n(CCCOc3cc(C)c(Cl)c(C)c3)c2C)cc1
Cmax [1]: 2010 ng/mL
inhibition at 20 min, 10 µM (CYP1A2): 19.3%
Kd (Bcl-2-like protein 1): > 10000 nM
AUC(0-t) at 24 h [2]: 4530 ng·h/mL
inhibition [3]: Dose-Dependent Effect
Selectivity ratio (Homo sapiens): > 40000
Activity (NCI-H929 [4]): Dose-Dependent Effect
inhibition [5]: 10%
inhibition at 20 min, 10 µM (CYP3A4): 29.4%
Activity (MV4-11 [6]): Active
Vz [7]: 6.65475 L/kg
IC50 (NCI-H929 [8]): 360 nM
remaining at 0.5 h [9]: 58.1%
efflux ratio (P-gp): 0.1
CL/F [10]: 36.8 mL/min/kg
Activity [11]: Non-Toxic
inhibition at 20 min, 10 µM (CYP2D6): 9.13%
Activity (NCI-H929 [12]): Dose-Dependent Effect
Activity (K562): inactive
inhibition [13]: 1.57%
Ki [14]: 20 nM
inhibition at 20 min, 10 µM (CYP2C9): 26%
solubility [15]: 32.3 µg/mL (≈ 62.4 µM)
Activity (MV4-11 [16]): Active
microsomal CLint [17]: 31.4 µL/min/mg
Activity [18]: Non-Toxic
